Results published in ChEMBL document CHEMBL1127274, “Evaluation of (2S,4S)/(2R,4R) and (2S,4R)/(2R,4S) 6,6-N,N-dimethyl-2-methyl-2-oxo-1,3-dioxa-4-hexadecyl-6,aza-2-phosphacyclooctane bromide as inhibitors for protein kinase C, carnitine octanoyltransferase, and carnitine palmitoyltransferase” (Bioorg Med Chem Lett, 1994).
pIC50: −log10 of the molar value.

Tests used:
[1] = target: T1, Carnitine O-palmitoyltransferase 2, mitochondrial (Homo sapiens, UniProt P23786); assay: Inhibitory potency against Carnitine Palmitoyltransferase (CPT-II); Range = 32-235 uM
T1 sequence (P23786 whole entry): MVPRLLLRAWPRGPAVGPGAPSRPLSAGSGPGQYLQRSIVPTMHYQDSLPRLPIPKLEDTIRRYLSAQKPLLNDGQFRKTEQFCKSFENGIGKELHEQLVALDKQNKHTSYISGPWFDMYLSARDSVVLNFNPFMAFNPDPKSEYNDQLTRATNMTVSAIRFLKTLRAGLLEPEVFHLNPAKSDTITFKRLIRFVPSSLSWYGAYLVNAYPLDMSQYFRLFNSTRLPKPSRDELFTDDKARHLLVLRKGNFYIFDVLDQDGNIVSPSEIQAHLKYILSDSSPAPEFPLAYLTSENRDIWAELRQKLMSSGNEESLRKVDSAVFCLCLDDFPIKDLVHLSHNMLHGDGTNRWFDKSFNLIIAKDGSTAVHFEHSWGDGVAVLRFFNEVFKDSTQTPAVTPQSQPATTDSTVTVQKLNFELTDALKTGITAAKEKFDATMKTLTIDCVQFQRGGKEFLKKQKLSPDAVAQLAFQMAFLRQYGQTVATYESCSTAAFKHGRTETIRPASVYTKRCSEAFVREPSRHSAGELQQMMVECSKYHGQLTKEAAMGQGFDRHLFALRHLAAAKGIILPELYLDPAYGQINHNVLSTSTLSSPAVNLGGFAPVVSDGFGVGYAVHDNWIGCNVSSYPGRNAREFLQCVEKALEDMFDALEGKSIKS

[2] = target: T2, Peroxisomal carnitine O-octanoyltransferase (Homo sapiens, UniProt Q9UKG9); assay: Inhibitory potency against carnitine octanoyltransferase (COT); Range = 1300-4000 uM
T2 sequence (Q9UKG9 whole entry): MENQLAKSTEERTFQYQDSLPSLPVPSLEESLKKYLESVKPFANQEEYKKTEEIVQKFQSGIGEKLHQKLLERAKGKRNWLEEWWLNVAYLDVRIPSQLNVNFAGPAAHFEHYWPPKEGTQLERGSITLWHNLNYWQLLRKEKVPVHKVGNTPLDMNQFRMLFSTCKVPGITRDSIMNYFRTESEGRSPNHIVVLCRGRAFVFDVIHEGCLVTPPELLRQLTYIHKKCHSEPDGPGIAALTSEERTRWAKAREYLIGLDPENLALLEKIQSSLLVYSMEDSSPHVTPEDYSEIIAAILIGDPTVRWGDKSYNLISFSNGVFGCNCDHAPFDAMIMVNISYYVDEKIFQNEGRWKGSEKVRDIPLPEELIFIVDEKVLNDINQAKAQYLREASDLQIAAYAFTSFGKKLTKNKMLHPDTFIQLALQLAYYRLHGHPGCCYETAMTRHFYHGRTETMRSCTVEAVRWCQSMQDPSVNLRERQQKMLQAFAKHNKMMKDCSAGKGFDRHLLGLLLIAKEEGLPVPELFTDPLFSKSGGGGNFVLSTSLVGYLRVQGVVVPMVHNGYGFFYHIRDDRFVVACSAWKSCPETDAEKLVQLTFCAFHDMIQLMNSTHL

pIC50 [1]: 3.63 | pIC50 [2]: 2.40
SMILES: CCCCCCCCCCCCCCCC[C@@]1(O)C[N+](C)(C)CCO1
